Source: US9428507B2, “Compounds for the treatment of malaria” (The Broad Institute, Inc., priority 2013, dated 2016)

The compounds below were run on Dd2 strain of P. falciparum (assay: Activity against the Dd2 strain of P. falciparum (SYBR Green I, 72-h incubation)). Details: Plasmodium falciparum, DD2, 72 h, read-out: EC^50 Dd2.
Format: cell-based
Experimental: The Dd2 strain of P. falciparum was cultured in complete medium (RPMI with L-glutamine, 4.3% heat-inactivated O-positive human serum, 2.08 mg/ml albumax, 0.013 mg/ml hypoxanthine, 1.17 mg/ml glucose, 0.18% NaHCO3, 0.031 M Hepes, 2.60 mM NaOH, and 0.043 mg/ml gentamicin) until the parasitemia reached 3-8%. Parasitemia was determined by checking at least 500 red blood cells from a Giemsa-stained blood smear. The Dd2 cultures along with tested O-positive red blood cells are centrifuged at room temperature at 2,000 rpm for 5 min using an Eppendorf centrifuge 581 OR with an A-4-81 rotor. The medium was aspirated off. For the compound screening, a parasite dilution at a 1% parasitemia and 1.0% hematocrit was created with screening medium (RPMI with L-glutamine, 4.16 mg/ml albumax II, 0.013 mg/ml hypoxanthine, 1.73 mg/ml glucose, 0.18% NaHCO3, 0.031M Hepes, 2.60 mM NaOH, and 0.043 mg/ml gentamicin). The suspension was gassed with 93% nitrogen, 4% carbon dioxide, and 3% oxygen and placed at 37° C. until needed. Using a liquid dispenser, 20 μl of screening medium was dispensed into 384-well, black, clear-bottom plates. With a PinTool, 100 nl of compounds dissolved in DMSO was transferred into the assay plates along with control compound (mefloquine). Next, 30 μl of the parasite suspension in screening medium was then dispensed into the assay plates such that the final parasitemia was 1%, and the final hematocrit was 1.0%. Final concentration of DMSO was 0.125%. Mefloquine at a final concentration of 20 μM and DMSO at a final concentration of 0.125% were used within the assay plates to serve as background and baseline controls, respectively. The assay plates were transferred to incubators (93% nitrogen, 4% carbon dioxide, and 3% oxygen during the 72-h incubation at 37° C.). Ten microliters of detection reagent consisting of 1 OX SYBR Green I (Invitrogen; supplied in 10,000× concentration) in lysis buffer (20 mM Tris-HCl, 5 mM EDTA, 0.16% Saponin wt/vol, 1.6% Triton X vol/vol) was dispensed into the assay plates. For optimal staining, the assay plates were left at room temperature for 24 h in the dark. The assay plates were read by using an Envision (PerkinElmer) reader, with 505 dichroic mirrors with 485-nm excitation and 530-nm emission settings, and the plate reads were from the bottom.

| Structure (SMILES) | EC50 |
| --- | --- |
| COc1ccc2c3c(n(C)c2c1)[C@@H](CO)N(C(=O)CN(C)C)CC31CCN(Cc2cccnc2)CC1 [Compound 90, (S)-2-(dimethylamino)-1-(1′-(hydroxymethyl)-7′-methoxy-9′-methyl-1-(pyridin-3-ylmethyl)spiro [piperidine-4,4′-pyrido[3,4-b]indol]-2′(1′H,3′H,9′H)-yl)ethanone] | 2610 nM |
| COc1ccc2c3c(n(C)c2c1)[C@H](CO)N(CC1CCCCC1)CC31CCN(Cc2nccs2)CC1 [Compound 85, (R)-(2′-(cyclohexylmethyl)-7′-methoxy-9′-methyl-1-(thiazol-2-ylmethyl)-1′,2′,3′,9′-tetrahydrospiro [piperidine-4,4′-pyrido[3,4-b]indol]-1′-yl)methanol] | 1620 nM |
| COc1ccc2c3c([nH]c2c1)[C@H](CO)N(C(C)=O)CC31CCN(Cc2ccccc2F)CC1 [Compound 21, (R)-1-(1-(2-fluorobenzyl)-1′-(hydroxymethyl)-7′-methoxyspiro[piperidine-4,4′-pyrido[3,4-b]indol]-2′(1′H,3′H,9′H)-yl)ethanone] | 4010 nM |
| COc1ccc2c3c(n(C)c2c1)[C@@H](CO)N(C(=O)c1ccccc1)CC31CCN(C(=O)c2ccccc2)CC1 [Compound 115, (S)-(1′-(hydroxymethyl)-7′-methoxy-9′-methylspiro [piperidine-4,4′-pyrido[3,4-b]indol]-1,2′(1′ H,3′H,9′H)-diyl)bis(phenylmethanone)] | 1040 nM |
| COc1ccc2c3c(n(C)c2c1)[C@@H](CO)N(C(=O)Nc1ccc(F)cc1)CC31CCN(Cc2cccnc2)CC1 [Compound 106, (S)-N-(4-fluorophenyl)-1′-(hydroxymethyl)-7′-methoxy-9′-methyl-1-(pyridin-3-ylmethyl)-3′,9′-dihydrospiro [piperidine-4,4′-pyrido[3,4-b]indole]-2′(1′H)-carboxamide] | 727 nM |
| COc1ccc2c3c(n(C)c2c1)[C@H](CO)NCC31CCN(Cc2ccc(-c3ccccn3)cc2)CC1 [Compound 79, (R)-(7′-methoxy-9′-methyl-1-(4-(pyridin-2-yl)benzyl)-1′,2′,3′,9′-tetrahydrospiro [piperidine-4,4′-pyrido[3,4-b]indol]-1′-yl)methanol] | 135 nM |
| COc1ccc2c3c([nH]c2c1)[C@H](CO)N(C(C)=O)CC31CCN(C(=O)NC2CCCCC2)CC1 [Compound 43, (R)-2′-acetyl-N-cyclohexy1-1′-(hydroxymethyl)-7′-methoxy-1′,2′,3′,9′-tetrahydrospiro[piperidine-4,4′-pyrido[3,4-b]indole]-1-carboxamide] | 3370 to 5220 nM |
| COc1ccc2c3c([nH]c2c1)[C@H](CO[Si](C)(C)C(C)(C)C)N(C(C)=O)CC31CCN(C(=O)OC(C)(C)C)CC1 [Compound 24, (R)-tert-butyl 2′-acety1-1′-(((tert-butyldimethylsilyl)oxy)methyl)-7′-methoxy-1′,2′,3′,9′-tetrahydrospiro [piperidine-4,4′-pyrido[3,4-b]indole]-1-carboxylate] | 1240 nM |
| COc1ccc2c3c([nH]c2c1)[C@H](CO)N(C(=O)C(C)(C)C)CC31CCN(C(=O)Nc2ccccc2F)CC1 [Compound 23, (R)-N-(2-fluorophenyl)-1′-(hydroxymethyl)-7′-methoxy-2'-pivaloyl-1′,2′,3′,9′-tetrahydrospiro[piperidine-4,4′-pyrido[3,4-b]indole]-1-carboxamide] | 2400 nM |
| CCC(=O)N1CC2(CCN(C(=O)Nc3ccccc3F)CC2)c2c([nH]c3cc(OC)ccc23)[C@@H]1CO [Compound 20, (R)-N-(2-fluorophenyl)-1′-(hydroxymethyl)-7′-methoxy-2′-propionyl-1′,2′,3′,9′-tetrahydrospiro[piperidine-4,4′-pyrido[3,4-b]indole]-1-carboxamide] | 620 nM |
| COc1ccc2c3c([nH]c2c1)[C@H](CO)N(C(C)=O)CC31CCN(S(=O)(=O)c2ccccc2F)CC1 [Compound 59, (R)-1-(1-((2-fluorophenyl)sulfonyl)-1′-(hydroxymethyl)-7′-methoxyspiro[piperidine-4,4′-pyrido[3,4-b]indol]-2′(1′H,3′H,9′H)-yl)ethanone] | 1460 to 2890 nM |
| COc1ccc2c3c([nH]c2c1)[C@H](CO)N(C(=O)C1CCCCC1)CC31CCN(Cc2nccs2)CC1 [Compound 103, (R)-cyclohexyl (1′-(hydroxymethyl)-7′-methoxy-1-(thiazol-2-ylmethyl)spiro[piperidine-4,4′-pyrido[3,4-b]indol]-2′(1′H,3′H,9′H)-yl)methanone] | 182 nM |
| COc1ccc2c3c([nH]c2c1)[C@@H](CO)N(Cc1ccccc1)CC31CCN(Cc2cncnc2)CC1 [Compound 94, (S)-(2′-benzyl-7′-methoxy-1-(pyrimidin-5-ylmethyl)-1′,2′,3′,9′-tetrahydrospiro [piperidine-4,4′-pyrido[3,4-b]indol]-1′-yl) methanol] | 929 nM |
| COc1ccc2c3c([nH]c2c1)[C@H](CO)N(C(=O)C1CCOCC1)CC31CCN(Cc2nccs2)CC1 [Compound 104, (R)-(1′-(hydroxymethyl)-7′-methoxy-1-(thiazol-2-ylmethyl)spiro[piperidine-4,4′-pyrido[3,4-b]indol]-2′(1′H,3′H,9′H)-yl)(tetrahydro-2H-pyran-4-yl)methanone] | 467 nM |
| COc1ccc2c3c(n(C)c2c1)[C@H](CO)N(C(=O)Nc1ccc(F)cc1)CC31CCN(C)CC1 [Compound 96, (R)-N-(4-fluorophenyl)-1′-(hydroxymethyl)-7′-methoxy-1,9′-dimethyl-3′,9′-dihydrospiro[piperidine-4,4′-pyrido[3,4-b]indole]-2′(1′H)-carboxamide] | 2870 nM |
| COc1ccc2c3c([nH]c2c1)[C@H](C)N(C(C)=O)CC31CCN(C(=O)OC(C)(C)C)CC1 [Compound 34, (S)-tert-butyl 2′-acetyl-7′-methoxy-1′-methyl-1′,2′,3′,9′-tetrahydrospiro[piperidine-4,4′-pyrido[3,4-b]indole]-1-carboxylate] | 3770 nM |
| COc1ccc2c3c([nH]c2c1)[C@H](CO)N(C(C)=O)CC31CCN(C(=O)Nc2ccc(F)cc2F)CC1 [Compound 54, (R)-2′-acetyl-N-(2,4-difluorophenyl)-1′-(hydroxymethyl)-7′-methoxy-1′,2′,3′,9′-tetrahydrospiro[piperidine-4,4′-pyrido[3,4-b]indole]-1-carboxamide] | 353 to 551 nM |
| COc1ccc2c3c([nH]c2c1)[C@H](CO)NCC31CCN(C(=O)Nc2ccccc2F)CC1 [Compound 26, (R)-N-(2-fluorophenyl)-1′-(hydroxymethyl)-7′-methoxy-1′,2′,3′,9′-tetrahydrospiro [piperidine-4,4′-pyrido[3,4-b]indole]-1-carboxamide] | 1330 nM |
| CCCN1CC2(CCN(C(=O)Nc3ccccc3F)CC2)c2c([nH]c3cc(OC)ccc23)[C@@H]1CO [Compound 49, (R)-N-(2-fluorophenyl)-1′-(hydroxymethyl)-7′-methoxy-2′-propyl-1′,2′,3′,9′-tetrahydrospiro[piperidine-4,4′-pyrido[3,4-b]indole]-1-carboxamide] | 2390 to 2920 nM |
| CCCC(=O)N1CCC2(CC1)CN(S(=O)(=O)c1ccc(C)cc1)[C@@H](CO)c1[nH]c3cc(OC)ccc3c12 [Compound 98, (R)-1-(1′-(hydroxymethyl)-7′-methoxy-2′-tosyl-1′,2′,3′,9′-tetrahydrospiro[piperidine-4,4′-pyrido[3,4-b]indol]-1-yl)butan-1-one] | 98 nM |
| COc1ccc2c3c([nH]c2c1)[C@H](CO[Si](C)(C)C(C)(C)C)NCC31CCN(C(=O)Nc2ccccc2F)CC1 [Compound 40, (R)-1′-(((tert-butyldimethylsilyl)oxy)methyl)-N-(2-fluorophenyl)-7′-methoxy-1′,2′,3′,9′-tetrahydrospiro[piperidine-4,4′-pyrido[3,4-b]indole]-1-carboxamide] | 1220 nM |
| COc1ccc2c3c([nH]c2c1)[C@@H](CO)N(Cc1ccncc1)CC31CCN(Cc2ccc(-c3ccccn3)cc2)CC1 [Compound 133, (S)-(7′-methoxy-1-(4-(pyridin-2-yl)benzy1)-2′-(pyridin-4-ylmethyl)-1′,2′,3′,9′-tetrahydrospiro [piperidine-4,4′-pyrido[3,4-b]indol]-1′-yl)methanol] | 613 nM |
| COc1ccc2c3c([nH]c2c1)[C@H](CO)N(C)CC31CCN(C(=O)Nc2ccccc2F)CC1 [Compound 61, (R)-N-(2-fluorophenyl)-1′-(hydroxymethyl)-7′-methoxy-2′-methyl-1′,2′,3′,9′-tetrahydrospiro[piperidine-4,4′-pyrido[3,4-b]indole]-1-carboxamide] | 3780 to 4120 nM |
